Test results taken from PubChem BioAssay (NCI).
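Results reflect a 48-hour exposure of cells in 96-well plates to compound at five concentrations. GI50: concentration for 50% inhibition of growth. At the TGI there is no net growth.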

How the values were obtained:
Assay in all cases: DTP human tumour cell line panel, 48 h
MDA-MB-435 = test system: MDA-MB-435
K-562 leukemia = test system: K-562 leukemia
IGROV1 ovarian = test system: IGROV1 ovarian
SR leukemia = test system: SR leukemia
T-47D breast = test system: T-47D breast
A498 renal = test system: A498 renal
M14 melanoma = test system: M14 melanoma
MOLT-4 leukemia = test system: MOLT-4 leukemia
DU-145 prostate = test system: DU-145 prostate
U251 CNS = test system: U251 CNS
SK-MEL-28 melanoma = test system: SK-MEL-28 melanoma
COLO 205 colon = test system: COLO 205 colon
EKVX NSCLC = test system: EKVX NSCLC
CCRF-CEM leukemia = test system: CCRF-CEM leukemia
SW-620 colon = test system: SW-620 colon
786-0 renal = test system: 786-0 renal
NCI-H522 lung = test system: NCI-H522 lung
LOX IMVI melanoma = test system: LOX IMVI melanoma
A549 NSCLC = test system: A549 NSCLC
PC-3 prostate = test system: PC-3 prostate
OVCAR-5 ovarian = test system: OVCAR-5 ovarian
OVCAR-8 ovarian = test system: OVCAR-8 ovarian
UACC-257 melanoma = test system: UACC-257 melanoma
HS 578T breast = test system: HS 578T breast
HCT-116 colon = test system: HCT-116 colon
OVCAR-4 ovarian = test system: OVCAR-4 ovarian
BT-549 breast = test system: BT-549 breast
SF-268 CNS = test system: SF-268 CNS
HL-60(TB) leukemia = test system: HL-60(TB) leukemia
RXF 393 renal = test system: RXF 393 renal
MCF7 breast = test system: MCF7 breast
KM12 colon = test system: KM12 colon
UACC-62 melanoma = test system: UACC-62 melanoma
HT29 colon = test system: HT29 colon
HOP-92 NSCLC = test system: HOP-92 NSCLC
MALME-3M melanoma = test system: MALME-3M melanoma
SNB-19 CNS = test system: SNB-19 CNS
RPMI-8226 leukemia = test system: RPMI-8226 leukemia
UO-31 renal = test system: UO-31 renal
HCC-2998 colon = test system: HCC-2998 colon
NCI-H460 lung = test system: NCI-H460 lung
NCI/ADR-RES ovarian = test system: NCI/ADR-RES ovarian
HOP-62 NSCLC = test system: HOP-62 NSCLC
SK-MEL-5 melanoma = test system: SK-MEL-5 melanoma
HCT-15 colon = test system: HCT-15 colon
SK-OV-3 ovarian = test system: SK-OV-3 ovarian
SN12C renal = test system: SN12C renal
NCI-H226 lung = test system: NCI-H226 lung
ACHN renal = test system: ACHN renal
SF-295 CNS = test system: SF-295 CNS
SNB-75 CNS = test system: SNB-75 CNS
OVCAR-3 ovarian = test system: OVCAR-3 ovarian
MDA-MB-231 breast = test system: MDA-MB-231 breast
SK-MEL-2 melanoma = test system: SK-MEL-2 melanoma
SF-539 CNS = test system: SF-539 CNS
TK-10 renal = test system: TK-10 renal

SMILES: CCN(CC)CCC(=O)c1ccc(Cl)c(Cl)c1
- TGI (MDA-MB-435): 30.8 µM
- TGI (K-562 leukemia): > 100 µM
- TGI (IGROV1 ovarian): > 100 µM
- TGI (SR leukemia): 64.2 µM
- TGI (T-47D breast): 51.1 µM
- TGI (A498 renal): 76 µM
- TGI (M14 melanoma): > 100 µM
- TGI (MOLT-4 leukemia): 82.8 µM
- TGI (DU-145 prostate): > 100 µM
- TGI (U251 CNS): > 100 µM
- TGI (SK-MEL-28 melanoma): 30.5 µM
- TGI (COLO 205 colon): 91.4 µM
- TGI (EKVX NSCLC): > 100 µM
- TGI (CCRF-CEM leukemia): 50.5 µM
- TGI (SW-620 colon): 41.3 µM
- TGI (786-0 renal): 31.9 µM
- TGI (NCI-H522 lung): 32.8 µM
- TGI (LOX IMVI melanoma): 30.1 µM
- TGI (A549 NSCLC): > 100 µM
- TGI (PC-3 prostate): > 100 µM
- TGI (OVCAR-5 ovarian): > 100 µM
- TGI (OVCAR-8 ovarian): > 100 µM
- TGI (UACC-257 melanoma): > 100 µM
- TGI (HS 578T breast): 45.9 µM
- TGI (HCT-116 colon): 68.3 µM
- TGI (OVCAR-4 ovarian): > 100 µM
- TGI (BT-549 breast): 36.3 µM
- TGI (SF-268 CNS): 63.4 µM
- TGI (HL-60(TB) leukemia): > 100 µM
- TGI (RXF 393 renal): 25.3 µM
- TGI (MCF7 breast): 28.8 µM
- TGI (KM12 colon): > 100 µM
- TGI (UACC-62 melanoma): 31 µM
- TGI (HT29 colon): > 100 µM
- TGI (HOP-92 NSCLC): 30.6 µM
- TGI (MALME-3M melanoma): 41.7 µM
- TGI (SNB-19 CNS): > 100 µM
- TGI (RPMI-8226 leukemia): > 100 µM
- TGI (UO-31 renal): > 100 µM
- TGI (HCC-2998 colon): > 100 µM
- TGI (NCI-H460 lung): > 100 µM
- TGI (NCI/ADR-RES ovarian): > 100 µM
- TGI (HOP-62 NSCLC): > 100 µM
- TGI (SK-MEL-5 melanoma): 35.5 µM
- TGI (HCT-15 colon): > 100 µM
- TGI (SK-OV-3 ovarian): > 100 µM
- TGI (SN12C renal): > 100 µM
- TGI (NCI-H226 lung): > 100 µM
- TGI (ACHN renal): > 100 µM
- TGI (SF-295 CNS): > 100 µM
- TGI (SNB-75 CNS): 80.1 µM

SMILES: CN1CCN(CCCCCOc2cc(O)c3c(=O)cc(-c4ccccc4)oc3c2)CC1
- GI50 (MDA-MB-435): 2.32 µM
- TGI (MDA-MB-435): 5.33 µM
- GI50 (K-562 leukemia): 1.8 µM
- TGI (K-562 leukemia): 3.68 µM
- GI50 (IGROV1 ovarian): 2.41 µM
- TGI (IGROV1 ovarian): 5.64 µM
- GI50 (A498 renal): 24.3 µM
- TGI (A498 renal): 42.8 µM
- GI50 (M14 melanoma): 1.71 µM
- TGI (M14 melanoma): 3.09 µM
- GI50 (MOLT-4 leukemia): 3.27 µM
- TGI (MOLT-4 leukemia): 12.4 µM
- GI50 (DU-145 prostate): 10.5 µM
- TGI (DU-145 prostate): > 100 µM
- GI50 (U251 CNS): 1.98 µM
- TGI (U251 CNS): 4.86 µM
- GI50 (SK-MEL-28 melanoma): 2.22 µM
- TGI (SK-MEL-28 melanoma): 4.25 µM
- GI50 (COLO 205 colon): 1.63 µM
- TGI (COLO 205 colon): 3.06 µM
- GI50 (EKVX NSCLC): 10.2 µM
- TGI (EKVX NSCLC): > 100 µM
- GI50 (SW-620 colon): 2.61 µM
- TGI (SW-620 colon): 7.53 µM
- GI50 (786-0 renal): 12.4 µM
- TGI (786-0 renal): 26.6 µM
- GI50 (NCI-H522 lung): 2.59 µM
- TGI (NCI-H522 lung): 6.71 µM
- GI50 (LOX IMVI melanoma): 1.6 µM
- TGI (LOX IMVI melanoma): 2.95 µM
- GI50 (A549 NSCLC): 8.18 µM
- TGI (A549 NSCLC): 26.3 µM
- GI50 (OVCAR-5 ovarian): 4 µM
- TGI (OVCAR-5 ovarian): 22.2 µM
- GI50 (OVCAR-8 ovarian): 15.7 µM
- TGI (OVCAR-8 ovarian): 91.7 µM
- GI50 (UACC-257 melanoma): 2.03 µM
- TGI (UACC-257 melanoma): 3.78 µM
- GI50 (HS 578T breast): 18.1 µM
- TGI (HS 578T breast): 51.9 µM
- GI50 (HCT-116 colon): 1.74 µM
- TGI (HCT-116 colon): 4.08 µM
- GI50 (OVCAR-4 ovarian): 19.1 µM
- TGI (OVCAR-4 ovarian): 77.7 µM
- GI50 (BT-549 breast): 13.4 µM
- TGI (BT-549 breast): 29.7 µM
- GI50 (SF-268 CNS): 11.7 µM
- TGI (SF-268 CNS): > 100 µM
- GI50 (OVCAR-3 ovarian): 3.45 µM
- TGI (OVCAR-3 ovarian): 8.1 µM
- GI50 (HL-60(TB) leukemia): 3.04 µM
- TGI (HL-60(TB) leukemia): 8.63 µM
- GI50 (RXF 393 renal): 1.96 µM
- TGI (RXF 393 renal): 5.97 µM
- GI50 (MCF7 breast): 3.45 µM
- TGI (MCF7 breast): 11.3 µM
- GI50 (KM12 colon): 2.84 µM
- TGI (KM12 colon): 9.66 µM
- GI50 (UACC-62 melanoma): 1.86 µM
- TGI (UACC-62 melanoma): 3.26 µM
- GI50 (HT29 colon): 2.86 µM
- TGI (HT29 colon): 8.12 µM
- GI50 (MDA-MB-231 breast): 1.12 µM
- TGI (MDA-MB-231 breast): 4.53 µM
- GI50 (MALME-3M melanoma): 0.898 µM
- TGI (MALME-3M melanoma): 4.31 µM
- GI50 (SNB-19 CNS): 4.11 µM
- TGI (SNB-19 CNS): 22.3 µM
- GI50 (UO-31 renal): 1.71 µM
- TGI (UO-31 renal): 3.55 µM
- GI50 (HCC-2998 colon): 0.239 µM
- TGI (HCC-2998 colon): 4.9 µM
- GI50 (NCI-H460 lung): 3.27 µM
- TGI (NCI-H460 lung): 11.3 µM
- GI50 (NCI/ADR-RES ovarian): 14.9 µM
- TGI (NCI/ADR-RES ovarian): 54.4 µM
- GI50 (HOP-62 NSCLC): 2.96 µM
- TGI (HOP-62 NSCLC): 8.54 µM
- GI50 (SK-MEL-5 melanoma): 3.13 µM
- TGI (SK-MEL-5 melanoma): 10.3 µM
- GI50 (HCT-15 colon): 1.79 µM
- TGI (HCT-15 colon): 4.02 µM
- GI50 (SK-MEL-2 melanoma): 3.04 µM
- TGI (SK-MEL-2 melanoma): 8.76 µM
- GI50 (SK-OV-3 ovarian): 3.62 µM
- TGI (SK-OV-3 ovarian): 16.9 µM
- GI50 (SF-539 CNS): 2.81 µM
- TGI (SF-539 CNS): 7.87 µM
- GI50 (SN12C renal): 11.8 µM
- TGI (SN12C renal): 27.6 µM
- GI50 (NCI-H226 lung): 22 µM
- TGI (NCI-H226 lung): 46.4 µM
- GI50 (ACHN renal): 1.91 µM
- TGI (ACHN renal): 3.87 µM
- GI50 (TK-10 renal): 12 µM
- TGI (TK-10 renal): 39.4 µM
- GI50 (SF-295 CNS): 2.05 µM
- TGI (SF-295 CNS): 4.16 µM
- GI50 (SNB-75 CNS): 30.5 µM
- TGI (SNB-75 CNS): 54.9 µM
